In US20250161338A1, “Compounds for Anti-aging Intervention” (AGENCY FOR SCIENCE, TECHNOLOGY AND RESEARCH, priority 2022, published 2025):

Tests used:
[1] = test system: prototrophic yeast strain (CEN.PK113-7D); assay: Yeast outgrowth in YPD liquid medium (CLS of aged cells); format: cell-based, Saccharomyces cerevisiae
How it was run: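 Cultures aged at 30 °C in SD medium with double-diluted rapamycin (0–10 nM) or sugars/polyols (0–8 mM). On day 14, 3 µL of culture was transferred into 200 µL YPD and outgrowth read as OD600. Survival expressed relative to day 1 outgrowth (100%).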

IMR90 cells = assay: CLS in human cells, PrestoBlue outgrowth assay (IMR90); format: cell-based
Experimental: Human embryonic kidney 293 (HEK293) cells (ATCC, Manassas, Virginia, United States of America), lung epithelial (A549) cells (ATCC, Manassas, Virginia, United States of America) and fibroblast (IMR90) cells (ATCC, Manassas, Virginia, United States of America) were cultured in the standard D10 medium, consisting of high-glucose DMEM (HyClone, Cytiva, Marlborough, Massachusetts, USA) supplemented with 10% Fetal Bovine Serum (FBS) (Gibco™, ThermoFisher Scientific, Waltham, Massachusetts, USA) and 1% Penicillin Streptomycin Solution (Gibco™, ThermoFisher Scientific, Waltham, Massachusetts, USA). All cells were cultured in a humidified incubator with 5% CO2 at 37° C.
The seeding, washing and trypsinization process was performed similarly to that for the crystal violet assay. 80,000 cells were seeded in a 96-well culture plate with or without compound treatment. […] After one day of growth in a 37° C. incubator with 5% CO2, the cell number was assessed with PrestoBlue™ Cell Viability Reagent (Invitrogen™, Waltham, Massachusetts, USA) according to the manufacturer's protocol. […] After incubation in a 37° C. incubator with 5% CO2 for 3 to 4 hours, reading was taken with a BioTek Synergy MX microplate reader (BioTek, Winooski, Vermont, United States) at excitation and emission wavelengths of 560 nm and 590 nm, respectively. […]

Question: Which results are given for OC[C@H]1O[C@H](CO)[C@@H](O)[C@@H]1O [2,5-AM, 2,5-anhydro-D-mannitol]?
Answer: antiaging activity in outgrowth assays ([1]; Day 1, 4, 7 and 10, FIGS. 6 to 8): verified by outgrowth assays; Outgrowth ([1]; concentration tested 300 μg/mL, OD600 nm after 24 h in YPD, age point day 14): 1.3; more surviving cells compared to the untreated group (IMR90 cells; 2.5 mM): 59.05%; more viable cells compared to the untreated group (IMR90 cells; 5 mM): 59.89%
